Test results reported in US20120082706A1, “MEDICAL DEVICE FOR DRUG DELIVERY” (TERUMO KABUSHIKI KAISHA, priority 2009, published 2012).

Assay: Differential scanning calorimetry (DSC) of drug/compound mixtures (solid solution screening)
Format: physicochemical
Experimental: For the purpose of screening adequate solid dispersions, several exemplary mixtures were prepared, each composed of paclitaxel and a compound of different kind, and these mixtures underwent differential scanning calorimetry (DSC) using a differential scanning calorimeter.
The paclitaxel is a product of SIGMA Corp.
The thus prepared solution was completely freed of ethanol or acetone by vacuum drying. The resulting dry product was placed in an aluminum pan and thereafter underwent DSC in a nitrogen atmosphere at a heating rate of 10° C./min.
For the purpose of observing the properties of the solid solution of HSPC and a drug other than paclitaxel, there were prepared a mixture of HSPC and sirolimus and a mixture of HSPC and simvastatin, as shown in Table 5 below.

CC(=O)O[C@H]1C(=O)[C@@]2(C)[C@H]([C@H](OC(=O)c3ccccc3)[C@]3(O)C[C@H](OC(=O)[C@H](O)[C@@H](NC(=O)c4ccccc4)c4ccccc4)C(C)=C1C3(C)C)[C@]1(OC(C)=O)CO[C@@H]1C[C@@H]2O [Comparative Example 4, paclitaxel]
endothermic peak due to fusion of paclitaxel (DSC thermogram): gave an endothermic peak
Peak due to fusion of paclitaxel (DSC, nitrogen atmosphere, 10° C./min, 10 mg compound + 10 mg paclitaxel, dried from ethanol or acetone): Yes
